These results are taken from the METLIN SMRT retention time set (Domingo-Almenara et al. 2019).

Structures are written as SMILES.

The nature of the data set: gradient 5% acetonitrile 3 min, to 50% in 2 min, to 85% in 15 min, held 3 min, 100 µL/min. The conditions noted are these: column: Zorbax Extend-C18 2.1 x 50 mm; eluents: water / acetonitrile, 0.1% formic acid. The method, boiled down: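 Retention times of pure standards were taken from adduct peaks that were selected by computer and manually inspected. Over 3 months, mixtures of ~100 molecules were run by HPLC–quadrupole time-of-flight mass spectrometry in positive and negative ionization mode. The Zorbax Extend-C18 column (2.1 × 50 mm, 1.8 μm) ran at 100 μL/min in water and acetonitrile, each containing 0.1% formic acid, with 40 μL dead volume and 900 μL dwell volume.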
As to `CCC(=O)N1CCc2cc(S(=O)(=O)CCC(=O)N3CCN(c4ccc(C)cc4)C(C)C3)ccc21` (centres undefined), the RP-LC retention time was 704 s. As for `O=c1c(S(=O)(=O)N2CCCCCC2)cccn1Cc1ccc(F)cc1`, the figure is 933 s. As to `CCOc1ccc(NC(=O)c2c(NC(=O)c3ccncc3)sc3c2CCC3)cc1`, the RP-LC retention time was found to be 1270 s. As for `Cc1nn(Cc2ccc(C(=O)NC3CC3)cc2)c(C)c1S(=O)(=O)N1CCCCC1`, the figure is 765 s; as for `CSc1ccc(CNC(=O)C2CCN(c3cc(=O)n(C)c(=O)n3C)CC2)cc1`, 694 s; as for `Cc1nn(C)cc1CN(C)C(=O)COc1ccc(NC(=O)C2CC2)cn1`, 604 s. As to `Cc1ccc(N2CCC(NC(=O)c3cc(F)cc(F)c3)C2=O)cc1C` (centres undefined), the RP-LC retention time was 943 s. As for `O=C(COc1ccccc1Cl)Nc1cncc(-c2nc3ccccc3o2)c1`, the figure is 995 s; as for `CC(C)n1c(=O)c(NCc2ccc(N3CCCCC3)cc2)nc2ccncc21`, 554 s. The same measure for `CCc1cnc2c(c1SCC(=O)N(CC)CC)c(=O)n(C)c(=O)n2C`: 786 s. Consider `CCOc1ccc(C(=O)N2CCC3(CC2)NC(=O)c2ccc(F)cc2N3C)cc1`, for which the RP-LC retention time was 767 s. The same measure for `CC(=O)Nc1nsc(N2CCC(C(=O)NCc3cc(F)cc(F)c3)CC2)n1`: 661 s. The same measure for `Cc1cc(C(=O)Nc2nc3c(s2)CN(C(=O)c2cnn(-c4ccccc4)c2C)CC3)no1`: 712 s.

In turn, `O=C(NCCc1csc(C2CCCN(C(=O)C3CCCO3)C2)n1)C1CC1` (centres undefined) had an RP-LC retention time of 627 s. The same measure for `Cn1c(C2CCN(C(=O)c3cccc(Cl)c3)C2)nc2cccnc21` (centres undefined): 688 s. As to `CN(C)C(=O)c1[nH]c2ccccc2c1N1CCCC1=O`, the RP-LC retention time was 604 s. `O=C(Nc1ccccc1NC(=O)c1ccccc1C(F)(F)F)c1cccs1` registered an RP-LC retention time of 835 s. As for `Cn1c(C(=O)NCC2CCCO2)cc2c(=O)oc3ccccc3c21` (centres undefined), the figure is 713 s. As for `Cc1ccccc1NC(=O)N1CCC2(C1)C(=O)Nc1ccccc12` (centres undefined), the figure is 727 s; as for `CC(Cc1ccco1)NC(=O)c1cc(S(=O)(=O)N2CCCCC2)ccc1Cl` (centres undefined), 967 s; as for `CC(C)CC(=O)Nc1ccc(-n2cnc(C(=O)N3CC(C)CC(C)C3)c2)nc1` (centres undefined), 839 s.

With `Cc1cc(N2C=C(C#N)S(=O)(=O)c3ccc(F)cc32)ccc1Br`, the RP-LC retention time is 979 s. The same measure for `Cc1nc2cc(-c3noc(COc4ccccc4)n3)ccc2n(C2CCCC2)c1=O`: 1200 s; for `CC(C)OCCCNC(=O)c1cn(C)cc2c(=O)n(-c3ccccc3)nc1-2`: 851 s. The same measure for `CCOCCCNC(=O)N1CCCC(c2nn[nH]n2)C1` (centres undefined): 591 s; for `CS(=O)(=O)N1CCC(C(=O)Nc2ccc(F)cc2F)Oc2ccc(Cl)cc21` (centres undefined): 944 s. As for `COc1ccc(OC)c(NC(=O)Cn2c(C)cc(-c3nnc(C4CC4)o3)c2C)c1`, the figure is 830 s. `O=C(C1CC1)N1CCCN(c2ccc([N+](=O)[O-])cc2)CC1` returned an RP-LC retention time of 688 s. The compound `O=C(C1CCCN(c2nnc(N3CCCC3=O)s2)C1)N1CCN(c2ccccn2)CC1` (centres undefined) registered an RP-LC retention time of 582 s. As for `CN1CCCCCCN(C(=O)Nc2ccc3c(c2)OCCO3)CCC1=O`, the figure is 745 s. The same measure for `Cc1ccc(-c2cc(C(=O)O)c3ccc(Br)cc3n2)cc1C`: 1240 s. The same measure for `Brc1cccc(-c2noc(CSc3nccn3-c3ccccc3)n2)c1`: 1020 s. As to `Cc1cccc(-c2noc(Cn3c(=O)n(Cc4cccc(Cl)c4)c(=O)c4sccc43)n2)c1`, the RP-LC retention time turned out to be 1230 s.

Take `CCN(CC)C(=O)Oc1ccc(C(=O)Nc2cccc3ccccc23)cc1`: the RP-LC retention time amounted to 896 s. As for `O=C(CCc1c(-c2ccc(Br)cc2)nc2ccccn12)NCCCc1ccccc1`, the figure is 722 s; as for `CCCN1C(=O)COc2ccc(-c3csc(NC(=O)C(C)(C)C)n3)cc21`, 1010 s. Regarding `CCCNC(=O)N1C[C@@H]2C(=O)N(CCc3ccccc3)C(=O)[C@@H]2C1`, the RP-LC retention time stood at 716 s.

For `Cc1ccccc1CN1C(=O)CN(S(=O)(=O)c2ccccc2)CC1(C)C(=O)NCc1ccccc1` (centres undefined), the RP-LC retention time stood at 905 s. The same measure for `O=C(Nc1cnc(-c2ccccc2)nc1)c1ccc(F)c(F)c1`: 1030 s. As for `O=S(=O)(c1ccccc1C(F)(F)F)N1CCc2nc(-c3ccc(F)cc3)ncc2C1`, the figure is 1150 s; as for `O=C(NC1(c2nc(-c3ccncc3)no2)CCCCC1)c1ccc2c(c1)OCO2`, 876 s; as for `CCCN1C(=O)CCc2cc(NC(=O)COc3ccc(F)cc3)ccc21`, 888 s.

For `Cc1cc2c(c(=O)n(-c3ccccc3)c(=O)n2CC(=O)Nc2ccc(Br)cc2F)n1C`, the RP-LC retention time came to 894 s. As for `COc1ccc(OC)c(NC(=O)c2ccc(S(=O)(=O)NC3CC3)cc2)c1`, the figure is 778 s; as for `COc1ccc(NC(=O)c2cc3c(=O)n(CC(C)C)ccc3n2C)cc1Cl`, 895 s; as for `CC(=O)NCc1ccc(-c2noc(-c3cccc(Br)c3)n2)s1`, 922 s.

On to `CCN(CC)C(=O)c1ccc(Cn2nc(C)c(S(=O)(=O)N3CCC(C)CC3)c2C)cc1`, for which the RP-LC retention time was determined as 917 s. The same measure for `CCCn1cc(CCNC(=O)c2ccc(F)c(F)c2)c2cccnc21`: 791 s; for `Cc1ccc(CNC(=O)C2CCN(C(=O)c3ncn4c3COC(c3ccc(Cl)cc3)C4)CC2)cc1` (centres undefined): 870 s; for `COc1ccc(-c2noc(Cn3ccnc3C)n2)cc1`: 611 s.

Regarding `O=C(NCCNC(=O)c1cccc(Cl)c1)c1ccc(NC(=O)C2CC2)cc1`, the RP-LC retention time is 667 s. The same measure for `COc1ccccc1N1CCN(C(=O)c2ccc(OCc3nc(C4CC4)cs3)cc2)CC1`: 911 s; for `Cc1sc(NC(=O)C(C)(C)C)nc1-c1ccc2c(c1)NC(=O)CO2`: 830 s. The same measure for `COc1ccc(NC(=O)CSc2nccc3c2ccn3C)c(OC)c1`: 687 s.

For `Cc1n[nH]c(C)c1CNC(=O)C1CCN(C(=O)c2ncn3c2COC(c2ccc(F)cc2)C3)CC1` (centres undefined), the RP-LC retention time came out at 627 s. As for `Cc1ccc(CN2CC(c3ncc(C)n3Cc3cccnc3)C2)s1`, the figure is 683 s; as for `CC(C)NC(=O)C1CCN(S(=O)(=O)c2cc(C(=O)N3CCCCCC3)cs2)CC1`, 767 s. The same measure for `Cc1ccc(-n2cc3c(N4CCCC(C(=O)NCc5ccccc5C(F)(F)F)C4)ncnc3n2)cc1` (centres undefined): 775 s; for `Cc1ccc(-c2ccc(-n3nc(C)c(S(=O)(=O)NCCC(C)C)c3C)nn2)cc1`: 1210 s. As for `Fc1ccc(C2CCNCC2COc2ccc3c(c2)OCO3)cc1` (centres undefined), the figure is 778 s; as for `O=C(CCc1c(-c2ccccc2)nc2ccccn12)Nc1cccc(F)c1`, 692 s. Compound `CN1CCCCCC(O)c2cc(C(=O)NCCC3=CCCCC3)ccc21` (centres undefined) yielded an RP-LC retention time of 703 s. The same measure for `COc1ccc(N2CCN(C(=O)C3CC(=O)N(c4ccc(C)c(C)c4)C3)CC2)nn1` (centres undefined): 594 s; for `Ic1cccc(/C=N/Nc2nc(N3CCOCC3)nc(N(c3ccccc3)c3ccccc3)n2)c1`: 1140 s; for `COc1cc(OC)cc(N2C(=O)C3N=NN(Cc4nc(-c5ccc(Cl)cc5)no4)C3C2=O)c1` (centres undefined): 1020 s.

`O=C(NCc1ccccc1Cl)c1cn2c(n1)CCCC2`: the RP-LC retention time came out at 613 s. As for `Cn1cc2nc(SCC(=O)Nc3ccc(Br)cc3)n(CC3CC3)c(=O)c2n1`, the figure is 905 s; as for `O=C(NCCc1csc(C2CCN(C(=O)C3CCCC3)CC2)n1)C1CC1`, 690 s; as for `COc1ccccc1Nc1c(-c2ccc(OC)c(OC)c2)nc2cnccn12`, 806 s.

With `CCN(CC)S(=O)(=O)c1ccc2c(c1)CC(C(=O)NC1CCCCCCC1)N2C(C)=O` (centres undefined), the RP-LC retention time turned out to be 959 s. The same measure for `CCn1c(C)c(C(=O)C(C)N(C(=O)c2ccc(C)cc2)C2CC2)c(C)c1C(=O)OC` (centres undefined): 1040 s. As for `COc1ccc(NC(=O)N2C[C@@H]3C[C@H]2C[C@@H]3NC(=O)c2cccs2)cc1F`, the figure is 729 s; as for `CCNc1cc(N2CCCC(CCC(=O)N3CCc4ccccc4C3)C2)ncn1` (centres undefined), 694 s; as for `CCCNC(=O)Nc1cccc(-c2noc(-c3ccc4c(c3)OCO4)n2)c1`, 941 s. The same measure for `Cc1nc(-c2cc(S(=O)(=O)Nc3cc(F)ccc3F)c(C)s2)sc1C`: 1100 s.

`COc1ccc(OC)c(N2C=C(C#N)S(=O)(=O)c3ccc(F)cc32)c1` showed an RP-LC retention time of 921 s. The same measure for `CCc1noc(C2(NC(=O)c3ccc(C#N)cc3)CCCCC2)n1`: 896 s; for `CC(C)c1cc(C(=O)Nc2ccc(F)c(F)c2)nc2ccnn12`: 1180 s; for `COc1ccc(CNC(=O)C2CCCN(c3ccc(=O)n(-c4ccc(C)c(Cl)c4)n3)C2)cc1OC` (centres undefined): 837 s.
